In ChEMBL document CHEMBL2321759, “A new target for an old drug: identifying mitoxantrone as a nanomolar inhibitor of PIM1 kinase via kinome-wide selectivity modeling” (J Med Chem, 2013):
Where a name gives a salt, the structure may show the parent alone. Calls of active or inactive are those of the source. The rule behind the calls is not given here.

What was measured:
MV4-11 [1] = assay: Effect on total PIM1 level in human MV411 cells at 10 to 100 nM after 12 hrs by Western blotting analysis; format: functional, cell-based
[2] = biological target: T1, Serine/threonine-protein kinase pim-1 (Homo sapiens, UniProt P11309); assay: Inhibition of PIM1-mediated BAD phosphorylation in human K562 cells at 0.1 to 30 uM after 12 hrs by Western blotting analysis; format: cell-based
Target sequence in this assay (P11309 whole entry, looked up): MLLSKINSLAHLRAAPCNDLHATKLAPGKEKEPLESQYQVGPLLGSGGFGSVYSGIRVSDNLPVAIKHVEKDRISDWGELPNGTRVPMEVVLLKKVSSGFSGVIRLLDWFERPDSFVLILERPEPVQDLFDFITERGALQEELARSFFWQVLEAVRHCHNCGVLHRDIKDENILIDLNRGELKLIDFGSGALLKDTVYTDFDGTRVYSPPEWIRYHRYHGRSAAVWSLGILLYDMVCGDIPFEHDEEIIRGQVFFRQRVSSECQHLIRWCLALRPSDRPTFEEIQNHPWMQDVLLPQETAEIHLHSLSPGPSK

MV4-11 [3] = assay: Effect on total BAD level in human MV411 cells at 10 to 100 nM after 12 hrs by Western blotting analysis; format: functional, cell-based
[4] = biological target: T1, Serine/threonine-protein kinase pim-1; assay: Inhibition of PIM1-mediated BAD phosphorylation in human MV411 cells at 100 nM after 12 hrs by Western blotting analysis; format: cell-based; settings: MV4-11
Target sequence in this assay (P11309 whole entry, looked up): as above

[5] = biological target: T1, Serine/threonine-protein kinase pim-1; assay: Inhibition of PIM1-mediated BAD phosphorylation in human MV411 cells after 12 hrs by Western blotting analysis; format: cell-based; settings: MV4-11
Target sequence in this assay (P11309 whole entry, looked up): as above

[6] = biological target: T1, Serine/threonine-protein kinase pim-1; assay: Inhibition of PIM1-mediated BAD phosphorylation in human K562 cells after 12 hrs by Western blotting analysis; format: cell-based
Target sequence in this assay (P11309 whole entry, looked up): as above

[7] = biological target: T2, Tyrosine-protein kinase BTK (Homo sapiens, UniProt Q06187); assay: Inhibition of BTK (unknown origin) using [gamma33P]ATP assessed as residual activity at 1 uM after 120 mins by radiometric assay
T2 sequence (Q06187 whole entry): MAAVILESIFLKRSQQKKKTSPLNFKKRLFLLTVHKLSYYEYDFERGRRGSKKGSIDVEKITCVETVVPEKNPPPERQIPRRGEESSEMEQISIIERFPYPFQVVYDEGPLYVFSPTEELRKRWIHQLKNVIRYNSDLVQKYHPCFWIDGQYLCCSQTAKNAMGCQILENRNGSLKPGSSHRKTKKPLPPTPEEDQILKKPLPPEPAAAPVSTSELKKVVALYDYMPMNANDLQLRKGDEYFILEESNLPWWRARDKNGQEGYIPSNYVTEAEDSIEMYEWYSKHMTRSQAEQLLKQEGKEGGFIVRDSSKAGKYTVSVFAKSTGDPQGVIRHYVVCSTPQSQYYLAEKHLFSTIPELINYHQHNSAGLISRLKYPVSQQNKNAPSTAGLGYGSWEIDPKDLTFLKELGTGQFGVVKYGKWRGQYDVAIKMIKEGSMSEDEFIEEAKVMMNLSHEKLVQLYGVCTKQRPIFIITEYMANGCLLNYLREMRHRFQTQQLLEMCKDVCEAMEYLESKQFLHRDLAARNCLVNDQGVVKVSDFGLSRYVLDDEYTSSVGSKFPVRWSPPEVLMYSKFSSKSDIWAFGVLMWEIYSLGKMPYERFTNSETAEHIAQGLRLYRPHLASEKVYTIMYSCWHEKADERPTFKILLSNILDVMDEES

[8] = biological target: RAC-alpha serine/threonine-protein kinase (Homo sapiens) (UniProt P31749); assay: Inhibition of AKT1 (unknown origin) using [gamma33P]ATP assessed as residual activity at 1 uM after 120 mins by radiometric assay
Chain of RAC-alpha serine/threonine-protein kinase (Homo sapiens) (P31749 whole entry): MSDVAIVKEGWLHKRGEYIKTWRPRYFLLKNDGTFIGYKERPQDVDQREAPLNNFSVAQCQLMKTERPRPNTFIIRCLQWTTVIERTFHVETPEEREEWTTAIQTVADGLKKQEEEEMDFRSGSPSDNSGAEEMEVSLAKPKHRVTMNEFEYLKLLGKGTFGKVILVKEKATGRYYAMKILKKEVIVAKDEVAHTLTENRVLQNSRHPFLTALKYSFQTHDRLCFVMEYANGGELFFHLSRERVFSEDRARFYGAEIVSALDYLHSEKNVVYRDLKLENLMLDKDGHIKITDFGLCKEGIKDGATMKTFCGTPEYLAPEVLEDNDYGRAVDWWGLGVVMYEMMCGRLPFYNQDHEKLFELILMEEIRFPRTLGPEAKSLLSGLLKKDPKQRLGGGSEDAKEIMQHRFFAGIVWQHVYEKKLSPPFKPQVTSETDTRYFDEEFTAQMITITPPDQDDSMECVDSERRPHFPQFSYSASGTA

[9] = biological target: Serine/threonine-protein kinase Chk2 (Homo sapiens) (UniProt O96017); assay: Inhibition of CHK2 (unknown origin) using [gamma33P]ATP assessed as residual activity at 1 uM after 120 mins by radiometric assay
Chain of Serine/threonine-protein kinase Chk2 (Homo sapiens) (O96017 whole entry): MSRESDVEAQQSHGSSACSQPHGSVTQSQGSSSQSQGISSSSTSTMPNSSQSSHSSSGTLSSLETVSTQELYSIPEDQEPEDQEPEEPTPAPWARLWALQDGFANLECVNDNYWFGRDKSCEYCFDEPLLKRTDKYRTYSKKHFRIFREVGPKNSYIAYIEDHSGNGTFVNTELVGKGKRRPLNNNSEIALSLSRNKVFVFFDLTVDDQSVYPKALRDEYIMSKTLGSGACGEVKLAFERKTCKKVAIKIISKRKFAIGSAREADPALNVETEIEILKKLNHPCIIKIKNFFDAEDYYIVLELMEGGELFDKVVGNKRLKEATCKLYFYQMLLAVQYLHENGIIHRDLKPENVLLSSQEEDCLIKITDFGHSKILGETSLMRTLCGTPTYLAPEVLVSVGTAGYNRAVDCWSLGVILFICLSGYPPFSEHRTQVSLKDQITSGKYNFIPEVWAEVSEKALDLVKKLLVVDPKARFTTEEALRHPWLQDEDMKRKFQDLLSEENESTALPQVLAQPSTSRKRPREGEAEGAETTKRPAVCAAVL

[10] = biological target: T1, Serine/threonine-protein kinase pim-1; assay: Inhibition of PIM1 (unknown origin) using [gamma33P]ATP assessed as residual activity at 1 uM after 120 mins by radiometric assayATP
Target sequence in this assay (P11309 whole entry, looked up): as the sequence (P11309 whole entry, looked up) above

[11] = biological target: Casein kinase II subunit alpha' (Homo sapiens) (UniProt P19784); assay: Inhibition of CK2alpha2 (unknown origin) using [gamma33P]ATP assessed as residual activity at 1 uM after 120 mins by radiometric assay
Chain of Casein kinase II subunit alpha' (Homo sapiens) (P19784 whole entry, looked up): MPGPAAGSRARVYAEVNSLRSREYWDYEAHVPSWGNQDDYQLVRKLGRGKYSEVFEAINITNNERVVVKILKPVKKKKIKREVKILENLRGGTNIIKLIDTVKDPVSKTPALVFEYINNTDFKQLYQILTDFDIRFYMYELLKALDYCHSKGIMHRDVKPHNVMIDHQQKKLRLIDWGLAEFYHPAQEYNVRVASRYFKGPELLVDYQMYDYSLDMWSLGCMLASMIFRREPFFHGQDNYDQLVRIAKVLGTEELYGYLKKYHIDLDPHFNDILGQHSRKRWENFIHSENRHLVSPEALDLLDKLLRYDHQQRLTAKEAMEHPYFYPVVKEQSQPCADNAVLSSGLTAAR

[12] = biological target: T1, Serine/threonine-protein kinase pim-1; assay: Inhibition of recombinant PIM1 (unknown origin) expressed in Escherichia coli BL21(DE3) after 1 hr by HTRF assay
Target sequence in this assay (P11309 whole entry): as the sequence (P11309 whole entry, looked up) above

[13] = biological target: Platelet-derived growth factor receptor beta (Mus musculus, UniProt P05622); assay: Inhibition of mouse PDGFRbeta expressed in SF9 insect cells by TR-FRET assay
Chain of Platelet-derived growth factor receptor beta (P05622 whole entry): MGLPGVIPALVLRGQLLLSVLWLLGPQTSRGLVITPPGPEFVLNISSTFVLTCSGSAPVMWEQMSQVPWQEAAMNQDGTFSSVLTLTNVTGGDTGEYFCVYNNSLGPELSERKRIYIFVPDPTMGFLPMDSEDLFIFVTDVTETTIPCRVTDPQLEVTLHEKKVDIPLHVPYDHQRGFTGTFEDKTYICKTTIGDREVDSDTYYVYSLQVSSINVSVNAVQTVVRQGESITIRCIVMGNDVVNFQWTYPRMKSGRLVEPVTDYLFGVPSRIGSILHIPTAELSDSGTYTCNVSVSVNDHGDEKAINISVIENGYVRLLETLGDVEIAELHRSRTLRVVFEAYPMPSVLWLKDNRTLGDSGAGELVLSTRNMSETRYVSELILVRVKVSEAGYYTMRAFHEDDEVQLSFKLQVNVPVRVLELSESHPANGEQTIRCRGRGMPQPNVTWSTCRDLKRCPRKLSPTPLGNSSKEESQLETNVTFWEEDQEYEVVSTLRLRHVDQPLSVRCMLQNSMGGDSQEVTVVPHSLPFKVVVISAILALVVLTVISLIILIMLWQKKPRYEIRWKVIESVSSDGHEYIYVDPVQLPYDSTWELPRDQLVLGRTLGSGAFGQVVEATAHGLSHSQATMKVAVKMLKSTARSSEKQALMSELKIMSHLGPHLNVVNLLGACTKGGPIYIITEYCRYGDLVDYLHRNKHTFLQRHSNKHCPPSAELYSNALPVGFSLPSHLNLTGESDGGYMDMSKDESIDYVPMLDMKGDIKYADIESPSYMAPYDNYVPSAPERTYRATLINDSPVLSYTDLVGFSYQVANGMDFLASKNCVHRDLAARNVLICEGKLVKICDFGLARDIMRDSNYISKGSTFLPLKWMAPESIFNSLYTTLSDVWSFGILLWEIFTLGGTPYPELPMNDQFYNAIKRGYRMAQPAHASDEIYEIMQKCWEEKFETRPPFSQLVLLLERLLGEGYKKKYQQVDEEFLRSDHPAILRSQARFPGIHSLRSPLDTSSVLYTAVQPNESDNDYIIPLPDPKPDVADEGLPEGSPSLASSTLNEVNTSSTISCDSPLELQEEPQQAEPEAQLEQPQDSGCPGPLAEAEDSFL

Casein kinase 2 = Casein kinase 2 (Homo sapiens, UniProt P67870+P68400+P19784+Q8NEV1); assay: Inhibition of human recombinant casein kinase 2 using [gamma-32P] ATP; format: protein assay
[14] = biological target: T2, Tyrosine-protein kinase BTK; assay: Inhibition of BTK (unknown origin)
[15] = Inhibition of Mycobacterium tuberculosis protein kinase B

Question: Which results are given for O=C1c2c(O)ccc(O)c2C(=O)c2c(NCCNCCO)ccc(NCCNCCO)c21?
Answer: Activity (MV4-11 [1]): inactive; inhibition [2]: Active; Activity (MV4-11 [3]): inactive; inhibition [4]: Active; inhibition [5]: Dose-dependent effect; inhibition [6]: Dose-dependent effect; Activity [7]: 45.9%; Activity [8]: 109%; Activity [9]: 59.7%; Activity [10]: 0.86%; Activity [11]: 81.8%

Question: Which IC50 [12] does the source give for O=C1c2c(O)ccc(O)c2C(=O)c2c(NCCNCCO)ccc(NCCNCCO)c21 [MITOXANTRONE HYDROCHLORIDE] here?
Answer: Its IC50 is 50.9 nM.

Question: Which IC50 [13] does the source give for CNC(=O)c1cc(Oc2ccc(NC(=O)Nc3ccc(Cl)c(C(F)(F)F)c3)cc2)ccn1 [SORAFENIB] here?
Answer: The IC50 was less than 100 nM.

Question: With O=C1c2c(O)ccc(O)c2C(=O)c2c(NCCNCCO)ccc(NCCNCCO)c21 [MITOXANTRONE] as the compound, how does the IC50 (Casein kinase 2) read?
Answer: Its IC50 is 660 nM.

Question: What about the IC50 [14] of the same compound?
Answer: Its IC50 is 1000 nM.

Question: And the IC50 [15]?
Answer: Its IC50 is 800 nM.
